The test system of this experiment is genotype 1b (Con-1) HCV replicon. The experiment is described as follows: HCV replicon luciferase assay, genotype 1b (Con-1). Format: cell-based. The conditions noted are these: genotype 1b HCV replicon, Huh-7 cells, Renilla luciferase, 3 days. The method, then: The cell lines used to evaluate compounds consist of a human hepatocyte derived cell line (Huh-7) that constitutively expresses a genotype 1b (Con-1) HCV replicon or a genotype 1b (Con-1) HCV replicon with an asparagine replacing the cysteine at amino acid 316, or a genotype 2a (JFH-1) replicon, containing a Renilla luciferase reporter gene. These cells were maintained in Dulbecco's modified Eagle medium (DMEM) containing 10% FBS, 100 U/mL penicillin/streptomycin and 1.0 mg/mL G418.
To evaluate compound efficacy, titrated compounds were transferred to sterile 384-well tissue culture treated plates, and the plates were seeded with HCV replicon cells (50 μL at a density of 2.4×10^3 cells/well) in DMEM containing 4% FBS (final DMSO concentration at 0.5%). After 3 days incubation at 37° C., cells were analyzed for Renilla Luciferase activity using the EnduRen substrate (Promega cat #E6485) according to the manufacturer's directions. Briefly, the EnduRen substrate was diluted in DMEM and then added to the plates to a final concentration of 7.5 μM. The plates were incubated for at least 1 h at 37° C. then read on a Viewlux Imager (PerkinElmer) using a luminescence program. The 50% effective concentration (EC50) was calculated using the four-parameter logistic formula noted above.

Where [1] appears, read: Hepatitis C virus, Huh-7, 72 h, read-out: EC50 1b (class).
The mark [2] stands for this setting: Hepatitis C virus, Huh-7, 72 h, read-out: EC50 (uM) 1b.

Read-outs that look alike come from different tables or passages of the source. A value given as a limit tells only on which side of the number the result lay.

For orientation: EC50 means the concentration giving half of the maximal effect.

Consider `CNC(=O)c1c(-c2ccc(F)cc2)oc2nc(NCC(F)(F)F)c(-c3ccc(F)c(C(=O)NC(C)(C#N)C4CC4)c3)cc12` (stereo not drawn) [Compound 22006], for which, where the note is “read-out: EC50 1b (class)”, the EC50 was less than 0.1 µM.

Regarding `CNC(=O)c1c(-c2ccc(F)cc2)oc2nc(NCC(F)(F)F)c(-c3cccc(C(=O)NC(C)(C#N)C(C)C)c3)cc12` (stereo not drawn) [Compound K4004], the EC50 is, setting by setting: under setting [1], less than 0.1 µM; under setting [2], 0.004 µM. With `CNC(=O)c1c(-c2ccc(F)cc2)oc2nc(CCC(F)(F)F)c(-c3cccc(C(=O)NC(C)(C#N)C(C)C)c3)cc12` (stereo not drawn) [Compound 11004], the EC50 under setting [1] was less than 0.1 µM. In the case of `CNC(=O)c1c(-c2ccc(F)cc2)oc2nc(CCC(F)(F)F)c(-c3cc(Cl)c(Cl)c(C(=O)NC(C)(C)C#N)c3)cc12` [Compound 16001], the EC50 under setting [1] is less than 0.1 µM.

With `CNC(=O)c1c(-c2ccc(F)cc2)oc2nc(CCC(F)(F)F)c(-c3ccc(F)c(C(=O)NC(C)(C#N)C4CC4)c3)cc12` (stereo not drawn) [Compound 13006], the half-maximal effective concentration (EC50) was less than 0.1 µM under setting [1] and 0.0036 µM under setting [2].

On to `CNC(=O)c1c(-c2ccc(F)cc2)oc2nc(CCC(F)(F)F)c(-c3cnc(OC)c(C(=O)NC4(C#N)CC4)c3)cc12` [Compound K7003], for which the concentration for a half-maximal effect (EC50) under setting [1] was less than 0.1 µM. The same measure, in the same setting: the figure for `CNC(=O)c1c(-c2ccc(F)cc2)oc2nc(NCC(F)(F)F)c(-c3cnc(OC)c(C(=O)NC4(C#N)CC4)c3)cc12` [Compound K8003] is less than 0.1 µM; for `CNC(=O)c1c(-c2ccc(F)cc2)oc2nc(CCC(F)(F)F)c(-c3ccc(OC)c(C(=O)NC4(C#N)CC4)c3)cc12` [Compound K6001] it is less than 0.1 µM.

`CNC(=O)c1c(-c2ccc(F)cc2)oc2nc(NCC(F)(F)F)c(-c3ccc(OC)c(C(=O)NC(C)(C)C#N)c3)cc12` [Compound 21001]: under setting [1], the EC50 is less than 0.1 µM. Turning to `CNC(=O)c1c(-c2ccc(F)cc2)oc2nc(NCC(F)(F)F)c(-c3cccc(C(=O)NC(C)(C#N)C4CC4)c3)cc12` (stereo not drawn) [Compound 20008], the EC50 (read-out: EC50 1b (class)) is less than 0.1 µM. As to `CNC(=O)c1c(-c2ccc(F)cc2)oc2nc(NCC(F)(F)F)c(-c3ccc(F)c(C(=O)NC(C)(C#N)C(C)C)c3)cc12` (stereo not drawn) [Compound K2005], the EC50 under setting [1] was less than 0.1 µM. Consider `CNC(=O)c1c(-c2ccc(F)cc2)oc2nc(NCC(F)(F)F)c(-c3cc(Cl)c(NCC(F)(F)F)c(C(=O)NC(C)(C)C#N)c3)cc12` [Compound 24001], for which the EC50 under setting [1] was less than 0.1 µM and the EC50 under setting [2] amounted to 0.0539 µM. As to `CNC(=O)c1c(-c2ccc(F)cc2)oc2nc(CCC(F)(F)F)c(-c3cc(C(=O)NC(C)(C#N)C4CC4)ccc3F)cc12` (stereo not drawn) [Compound 15001], the EC50 under setting [1] was less than 0.1 µM.

For the compound `CNC(=O)c1c(-c2ccc(F)cc2)oc2nc(NCC(F)(F)F)c(-c3ccc(F)c(C(=O)NC(C)C#N)c3)cc12` (stereo not drawn) [Compound 22003], for the setting “read-out: EC50 1b (class)”, the EC50 is less than 0.1 µM. For `CNC(=O)c1c(-c2ccc(F)cc2)oc2nc(CCC(F)(F)F)c(-c3cnc(OC)c(C(=O)NC4(C#N)CCCC4)c3)cc12` [Compound K7004], the EC50 under setting [1] is less than 0.1 µM. Regarding `CNC(=O)c1c(-c2ccc(F)cc2)oc2nc(NCC(F)(F)F)c(-c3ccc(F)c(C(=O)NC(C)(C#N)C4CC4)c3)cc12` (stereo not drawn) [Compound 22004], the half-maximal effective concentration (EC50) reads like this: under setting [1], less than 0.1 µM; under setting [2], 0.004 µM. As to `CNC(=O)c1c(-c2ccc(F)cc2)oc2nc(NCC(F)(F)F)c(-c3cccc(C(=O)NC4(C#N)CCCC4)c3)cc12` [Compound K4001], the EC50 under setting [1] was less than 0.1 µM. Same read-out and setting: to `CNC(=O)c1c(-c2ccc(F)cc2)oc2nc(NCC(F)(F)C(F)(F)F)c(-c3cccc(C(=O)NC4(C#N)CCCC4)c3)cc12` [Compound 30003] belongs less than 0.1 µM.

For the compound `CNC(=O)c1c(-c2ccc(F)cc2)oc2nc(NCC(F)(F)F)c(-c3cc(F)cc(C(=O)NC(C)(C)C#N)c3)cc12` [Compound 23002], the EC50 reads like this: under setting [1], less than 0.1 µM; under setting [2], 0.0072 µM.

Turning to `CNC(=O)c1c(-c2ccc(F)cc2)oc2nc(CCC(F)(F)F)c(-c3ccc(F)c(C(=O)NC(C)C#N)c3)cc12` (stereo not drawn) [Compound 13004], the EC50 (read-out: EC50 1b (class)) was less than 0.1 µM. In the case of `CNC(=O)c1c(-c2ccc(F)cc2)oc2nc(NCC(F)(F)F)c(-c3cccc(C(=O)NC4(C#N)CC4)c3)cc12` [Compound K4003], the EC50 reads like this: under setting [1], less than 0.1 µM; under setting [2], 0.0043 µM.

Consider `CNC(=O)c1c(-c2ccc(F)cc2)oc2nc(NCC(F)(F)C(F)(F)F)c(-c3ccc(OC)c(C(=O)NC(C)(C#N)C4CC4)c3)cc12` (stereo not drawn) [Compound 31002], for which the EC50 was less than 0.1 µM under setting [1] and 0.0061 µM under setting [2]. For `CNC(=O)c1c(-c2ccc(F)cc2)oc2nc(CCC(F)(F)F)c(-c3cc(F)c(F)c(C(=O)NC(C)(C#N)C4CC4)c3)cc12` (stereo not drawn) [Compound 17001], the EC50 reads like this: under setting [1], less than 0.1 µM; under setting [2], 0.0018 µM. In the case of `CNC(=O)c1c(-c2ccc(F)cc2)oc2nc(CCC(F)(F)F)c(-c3ccc(OC)c(C(=O)NC4(C#N)CCC4)c3)cc12` [Compound 12002], the EC50 under setting [1] is less than 0.1 µM. Consider `CNC(=O)c1c(-c2ccc(F)cc2)oc2nc(NCC(F)(F)F)c(-c3ccc(F)c(C(=O)NC4(C#N)CCCC4)c3)cc12` [Compound K2004], for which the half-maximal effective concentration (EC50) under setting [1] is less than 0.1 µM. As to `CNC(=O)c1c(-c2ccc(F)cc2)oc2nc(NCC(F)(F)F)c(-c3cccc(C(=O)NC4(C#N)CCC4)c3)cc12` [Compound K4002], under setting [1], the EC50 is less than 0.1 µM. On to `CNC(=O)c1c(-c2ccc(F)cc2)oc2nc(NCC(F)(F)F)c(-c3ccc(F)c(C(=O)NC4(C#N)CCC4)c3)cc12` [Compound K2003], for which, under setting [1], the EC50 was less than 0.1 µM. The same measure, in the same setting: the figure for `CNC(=O)c1c(-c2ccc(F)cc2)oc2nc(NCC(F)(F)F)c(-c3cnc(OC)c(C(=O)NC(C)(C)C#N)c3)cc12` [Compound K8001] is less than 0.1 µM; for `CNC(=O)c1c(-c2ccc(F)cc2)oc2nc(NCC(F)(F)C(F)(F)F)c(-c3cccc(C(=O)NC(C)(C)C#N)c3)cc12` [Compound 30001] it is less than 0.1 µM. Still for that read-out and setting: to `CNC(=O)c1c(-c2ccc(F)cc2)oc2nc(NCC(F)(F)F)c(-c3ccc(OC)c(C(=O)NC4(C#N)CCC4)c3)cc12` [Compound K5001] belongs less than 0.1 µM; to `CNC(=O)c1c(-c2ccc(F)cc2)oc2nc(NCC(F)(F)C(F)(F)F)c(-c3ccc(OC)c(C(=O)NC(C)(C#N)C(C)C)c3)cc12` (stereo not drawn) [Compound 31001], less than 0.1 µM; to `CNC(=O)c1c(-c2ccc(F)cc2)oc2nc(Cl)c(-c3ccc(OC)c(C(=O)NC4(C#N)CCC4)c3)cc12` [Compound 10002], less than 0.1 µM.

Consider `CNC(=O)c1c(-c2ccc(F)cc2)oc2nc(NCC(F)(F)F)c(-c3ccc(OC)c(C(=O)NC4(C#N)CCCC4)c3)cc12` [Compound K5003], for which the EC50 under setting [1] was less than 0.1 µM. For the compound `CNC(=O)c1c(-c2ccc(F)cc2)oc2nc(NCC(F)(F)F)c(-c3cccc(C(=O)NC(C)C#N)c3)cc12` (stereo not drawn) [Compound 20003], the EC50 (read-out: EC50 1b (class)) is less than 0.1 µM.

For the compound `CNC(=O)c1c(-c2ccc(F)cc2)oc2nc(CCC(F)(F)F)c(-c3cccc(C(=O)NC4(C#N)CCCC4)c3)cc12` [Compound 11003], the EC50 was less than 0.1 µM under setting [1] and 0.0046 µM under setting [2]. For the compound `CNC(=O)c1c(-c2ccc(F)cc2)oc2nc(CCC(F)(F)F)c(-c3ccc(F)c(C(=O)NC4(C#N)CCC4)c3)cc12` [Compound K1002], the EC50 under setting [1] was less than 0.1 µM. `CNC(=O)c1c(-c2ccc(F)cc2)oc2nc(NCC(F)(F)F)c(-c3ccc(F)c(C(=O)NC(C)C#N)c3)cc12` (stereo not drawn) [Compound 22002]: for the setting “read-out: EC50 1b (class)”, the EC50 is less than 0.1 µM. As for `CNC(=O)c1c(-c2ccc(F)cc2)oc2nc(NCC(F)(F)F)c(-c3cccc(C(=O)NC(C)(C#N)C4CC4)c3)cc12` (stereo not drawn) [Compound 20007], the EC50 (read-out: EC50 1b (class)) is less than 0.1 µM.

Turning to `CNC(=O)c1c(-c2ccc(F)cc2)oc2nc(NCCO)c(-c3cccc(C(=O)NC(C)(C)C#N)c3)cc12` [Compound 40001], the EC50 under setting [1] is less than 0.1 µM. For the compound `CC[C@@H](C)c1nc2oc(-c3ccc(F)cc3)c(C(=O)NC)c2cc1-c1cccc(C(=O)NC(C)(C)C#N)c1` [Compound K11002], the EC50 by setting is: under setting [1], less than 0.1 µM; under setting [2], 0.0044 µM. In the same order, the values of `CNC(=O)c1c(-c2ccc(F)cc2)oc2nc(CCC(F)(F)F)c(-c3cnc(OC)c(C(=O)NC(C)(C#N)C(C)C)c3)cc12` (stereo not drawn) [Compound K7005] are less than 0.1 µM and 0.0028 µM. In the case of `CNC(=O)c1c(-c2ccc(F)cc2)oc2nc(CCC(F)(F)F)c(-c3ccc(OC)c(C(=O)NC(C)(C)C#N)c3)cc12` [Compound 12001], the half-maximal effective concentration (EC50) is less than 0.1 µM under setting [1] and 0.0025 µM under setting [2]. For the compound `CNC(=O)c1c(-c2ccc(F)cc2)oc2nc(CCC(F)(F)F)c(-c3cnc(OC)c(C(=O)NC(C)(C)C#N)c3)cc12` [Compound K7001], the EC50 under setting [1] is less than 0.1 µM.

`CNC(=O)c1c(-c2ccc(F)cc2)oc2nc(Cl)c(-c3cccc(C(=O)NC4(C#N)CCC4)c3)cc12` [Compound 10005]: under setting [1], the EC50 was less than 0.1 µM. `CNC(=O)c1c(-c2ccc(F)cc2)oc2nc(CCC(F)(F)F)c(-c3cc(F)cc(C(=O)NC(C)(C#N)C4CC4)c3)cc12` (stereo not drawn) [Compound 14002]: the concentration for a half-maximal effect (EC50) under setting [1] is less than 0.1 µM. For the compound `CNC(=O)c1c(-c2ccc(F)cc2)oc2nc(NCC(F)(F)F)c(-c3cccc(C(=O)NC(C)C#N)c3)cc12` (stereo not drawn) [Compound 20004], the EC50 (read-out: EC50 1b (class)) was less than 0.1 µM.

Regarding `CNC(=O)c1c(-c2ccc(F)cc2)oc2nc(NCC(F)(F)F)c(-c3ccc(F)c(C(=O)NC4(C#N)CC4)c3)cc12` [Compound K2002], the EC50 under setting [1] is less than 0.1 µM and the EC50 under setting [2] came to 0.0034 µM.

Source of the values: US9249152B2, “Cyano containing azabenzofuran compounds for the treatment of hepatitis C” (BRISTOL-MYERS SQUIBB COMPANY, priority 2014, dated 2016).
